Assay results published in PubChem BioAssay AID248 (DTP/NCI, 2004).
Inconclusive results and toxic doses are left out. No stated cut-off is given here; in the data, active means T/C of 150% or more; inactive means T/C below 125%.

Test system: L1210 leukemia ip in BDF1 mice, survival T/C
Assay: NCI In Vivo Anticancer Drug Screen. Data for tumor model L1210 Leukemia (intraperitoneal) in B6D2F1 (BDF1) mice
Details: endpoint: mean survival time, higher = longer survival
Summary of the method: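 Tumor cells were implanted, animals were treated, and survival was followed. The result divides the treated measurement by the vehicle-control measurement.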

[1] = dose: 100.0 mg/kg/injection, schedule: Q04DX002 (ip), vehicle: Klucel (hydroxypropylcellulose) (HPC)
[2] = dose: 200.0 mg/kg/injection, schedule: Q04DX002 (ip), vehicle: Klucel (hydroxypropylcellulose) (HPC)
[3] = dose: 400.0 mg/kg/injection, schedule: Q04DX002 (ip), vehicle: Klucel (hydroxypropylcellulose) (HPC)
[4] = dose: 100.0 mg/kg/injection, schedule: Q01DX001 (ip), vehicle: saline
[5] = dose: 200.0 mg/kg/injection, schedule: Q01DX001 (ip), vehicle: saline
[6] = dose: 400.0 mg/kg/injection, schedule: Q01DX001 (ip), vehicle: saline
[7] = dose: 100.0 mg/kg/injection, schedule: Q04DX002 (ip), vehicle: saline

Measured: T/C

COc1cccc(CCC(=O)c2ccccc2)c1
inactive: [1] 106 % of control | [2] 90 % of control | [3] 94 % of control

O=C(Nc1cccc2cnccc12)c1ccc(C(=O)Nc2cccc3cnccc23)cc1
inactive: [4] 98 % of control | [5] 104 % of control | [6] 104 % of control

C=C1CCOC1=O
inactive: [7] 104 % of control | dose: 200.0 mg/kg/injection, schedule: Q04DX002 (ip), vehicle: saline 108 % of control | dose: 400.0 mg/kg/injection, schedule: Q04DX002 (ip), vehicle: saline 106 % of control

Nc1nc[nH]c1C(=O)NO
inactive: [4] 100 % of control | [5] 103 % of control | [6] 92 % of control

CC1(C)OC2C(COC(N)=O)OC(n3cnc4c(=O)[nH]c(N)nc43)C2O1 (stereo unspecified)
inactive: dose: 100.0 mg/kg/injection, schedule: Q01DX005 (ip), vehicle: saline 105 % of control | dose: 200.0 mg/kg/injection, schedule: Q01DX005 (ip), vehicle: saline 103 % of control

Cc1ccc(CNC(=O)Nc2c(C)cccc2C)cc1C
inactive: [1] 102 % of control | [2] 108 % of control | [3] 97 % of control

O=C(Nc1ccc(CCO)cc1)Nc1cc([N+](=O)[O-])ccc1Cl
inactive: dose: 12.5 mg/kg/injection, schedule: Q01DX009 (ip), vehicle: Klucel (hydroxypropylcellulose) (HPC) 102 % of control | dose: 25.0 mg/kg/injection, schedule: Q01DX009 (ip), vehicle: Klucel (hydroxypropylcellulose) (HPC) 104 % of control | dose: 50.0 mg/kg/injection, schedule: Q01DX009 (ip), vehicle: Klucel (hydroxypropylcellulose) (HPC) 91 % of control

NC(=S)N=Nc1c(O)cc(O)c2[nH]c(=O)ccc12
inactive: dose: 5.0 mg/kg/injection, schedule: Q01DX001 (ip), vehicle: saline 101 % of control | dose: 10.0 mg/kg/injection, schedule: Q01DX001 (ip), vehicle: saline 101 % of control | dose: 20.0 mg/kg/injection, schedule: Q01DX001 (ip), vehicle: saline 103 % of control | dose: 40.0 mg/kg/injection, schedule: Q01DX001 (ip), vehicle: saline 105 % of control | dose: 80.0 mg/kg/injection, schedule: Q01DX001 (ip), vehicle: saline 108 % of control

O=c1sc2ccccc2n1CCSCCn1c(=S)sc2ccccc21
inactive: [4] 90 % of control | [6] 93 % of control

S=C(Nc1ccccc1)Nc1cccc2ccccc12
inactive: dose: 50.0 mg/kg/injection, schedule: Q01DX001 (ip), vehicle: saline 97 % of control | [4] 103 % of control | dose: 100.0 mg/kg/injection, schedule: Q01DX009 (ip), vehicle: Klucel (hydroxypropylcellulose) (HPC) 105 % of control | [1] 87 % of control | [5] 97 % of control | dose: 200.0 mg/kg/injection, schedule: Q01DX009 (ip), vehicle: Klucel (hydroxypropylcellulose) (HPC) 105 % of control | [2] 87 % of control | [6] 94 % of control | dose: 400.0 mg/kg/injection, schedule: Q01DX009 (ip), vehicle: Klucel (hydroxypropylcellulose) (HPC) 112 % of control

Cc1ccc(S(=O)(=O)Nc2ccc(OS(=O)(=O)c3ccc(C)cc3)cc2)cc1
inactive: dose: 100.0 mg/kg/injection, schedule: Q01DX001 (ip), vehicle: carboxymethylcellulose (CMC) 108 % of control | dose: 200.0 mg/kg/injection, schedule: Q01DX001 (ip), vehicle: carboxymethylcellulose (CMC) 100 % of control | dose: 400.0 mg/kg/injection, schedule: Q01DX001 (ip), vehicle: carboxymethylcellulose (CMC) 100 % of control

CN(C)CCC(C(=O)N(C)C)(c1ccccc1)c1ccccc1
inactive: dose: 75.0 mg/kg/injection, schedule: Q01DX001 (ip), vehicle: carboxymethylcellulose (CMC) 94 % of control | dose: 150.0 mg/kg/injection, schedule: Q01DX001 (ip), vehicle: carboxymethylcellulose (CMC) 97 % of control

CCOC(=O)c1ccc(NC(=S)NC(=O)c2ccccc2)cc1
inactive: dose: 100.0 mg/kg/injection, schedule: Q04DX002 (ip), vehicle: saline with Tween-80 100 % of control | dose: 200.0 mg/kg/injection, schedule: Q04DX002 (ip), vehicle: saline with Tween-80 94 % of control

Nc1ccc(N=Nc2ccc(OCCN(CCO)CCO)cc2)c(N)n1
inactive: [4] 93 % of control | [5] 98 % of control

CNC(=O)N(c1ccccc1)C1CCCCC1
inactive: dose: 50.0 mg/kg/injection, schedule: Q01DX009 (ip), vehicle: saline 112 % of control | dose: 100.0 mg/kg/injection, schedule: Q01DX009 (ip), vehicle: saline 103 % of control | dose: 100.0 mg/kg/injection, schedule: Q04DX003 (ip), vehicle: saline 104 % of control | dose: 200.0 mg/kg/injection, schedule: Q01DX009 (ip), vehicle: saline 103 % of control | dose: 200.0 mg/kg/injection, schedule: Q04DX003 (ip), vehicle: saline 97 % of control

COc1cc(Br)c(C(C)CC(=O)O)cc1OC (stereo unspecified)
inactive: dose: 100.0 mg/kg/injection, schedule: Q04DX003 (ip), vehicle: saline with Tween-80 103 % of control | dose: 200.0 mg/kg/injection, schedule: Q04DX003 (ip), vehicle: saline with Tween-80 98 % of control | dose: 400.0 mg/kg/injection, schedule: Q04DX003 (ip), vehicle: saline with Tween-80 92 % of control

CCCCCCCCC(=O)N1CCN(C)CC1
inactive: [7] 103 % of control

COc1cccc2c1C(=O)c1c(O)c3c(c(O)c1C2=O)C[C@@](O)(C(C)=O)C[C@@H]3OC1CC(NC(=S)Nc2ccc(F)cc2)C(O)C(C)O1 (stereo partly specified)
inactive: dose: 0.25 mg/kg/injection, schedule: Q04DX003 (ip), vehicle: other 100 % of control | dose: 0.5 mg/kg/injection, schedule: Q04DX003 (ip), vehicle: other 98 % of control | dose: 1.0 mg/kg/injection, schedule: Q04DX003 (ip), vehicle: other 104 % of control | dose: 2.0 mg/kg/injection, schedule: Q04DX003 (ip), vehicle: other 100 % of control | dose: 4.0 mg/kg/injection, schedule: Q04DX003 (ip), vehicle: other 112 % of control | dose: 6.0 mg/kg/injection, schedule: Q01DX009 (ip), vehicle: water 111 % of control | dose: 8.0 mg/kg/injection, schedule: Q04DX003 (ip), vehicle: other 112 % of control | dose: 12.0 mg/kg/injection, schedule: Q01DX009 (ip), vehicle: water 114 % of control | dose: 14.0 mg/kg/injection, schedule: Q04DX003 (ip), vehicle: water 108 % of control | dose: 16.0 mg/kg/injection, schedule: Q04DX003 (ip), vehicle: other 109 % of control | dose: 21.0 mg/kg/injection, schedule: Q04DX003 (ip), vehicle: water 108 % of control | dose: 23.0 mg/kg/injection, schedule: Q01DX009 (ip), vehicle: water 108 % of control | dose: 24.0 mg/kg/injection, schedule: Q01DX009 (ip), vehicle: water 116 % of control | dose: 39.0 mg/kg/injection, schedule: Q01DX009 (ip), vehicle: water 109 % of control | dose: 48.0 mg/kg/injection, schedule: Q01DX009 (ip), vehicle: water 122 % of control | dose: 50.0 mg/kg/injection, schedule: Q04DX003 (ip), vehicle: water 120 % of control | dose: 65.0 mg/kg/injection, schedule: Q01DX009 (ip), vehicle: water 109 % of control | dose: 108.0 mg/kg/injection, schedule: Q01DX009 (ip), vehicle: water 119 % of control | dose: 180.0 mg/kg/injection, schedule: Q01DX009 (ip), vehicle: water 104 % of control

CCOC(=O)CNC(=O)C(OC(C)=O)C(OC(C)=O)C(=O)O (stereo unspecified)
inactive: dose: 100.0 mg/kg/injection, schedule: Q04DX003 (ip), vehicle: water 97 % of control | dose: 200.0 mg/kg/injection, schedule: Q04DX003 (ip), vehicle: water 92 % of control | dose: 400.0 mg/kg/injection, schedule: Q04DX003 (ip), vehicle: water 92 % of control
